Assay results: the NIST ThermoML archive (doi:10.1021/je034127q)
± gives the expanded uncertainty stated by the source.

Details: Liquid

| Structure (SMILES) | Critical pressure [kPa] | Critical temperature [K] |
| --- | --- | --- |
| O=C=O [carbon dioxide] | 7420 ± 250 | 304.5 ± 2.5 |
| CCCCCC [hexane] | 3020 ± 250 | 507.4 ± 2.5 |
| CO [methanol] | 8120 ± 250 | 512.6 ± 2.5 |
